Assay results as given in US9127040B2, “Regulation of sodium channels by PLUNC proteins” (The University of North Carolina at Chapel Hill, priority 2011, dated 2015).
Ends that are not written are not given here.

Molecular target: T1, γENaC (Homo sapiens, UniProt P51170)
T1 construct: expressed in transfected cells; host or cells: HEK293T cells (lysate)
Assay: Biotinylated peptide pull-down of ENaC subunits from HEK293T cells
Assay type: binding
Conditions: subunits individually expressed
Protocol: HEK293T cells were transfected with double-tagged human ENaC subunits with HA and V5 epitopes at the N- and C-termini, respectively, in combination with wild-type untagged subunit cDNA. When all three ENaC subunits were expressed, 0.5 μg of each subunit were transfected per well. When expressed individually, 0.75 μg of the subunit were transfected per well. The transfected cells were lysed 24 h later using NP-40 buffer with 1× complete EDTA-free protease inhibitor (Roche, Basel, Switzerland). The lysate was centrifuged at 16,300×g for 15 minutes at 4° C. and the supernatant collected. Protein concentration was determined using the BCA assay and 500 μg of protein plus 0.25 mg peptide and 100 μL of neutravidin were added to a spin column and rotated end-over-end at 4° C. for 24 h (all ThermoFisher Scientific, Rockford, Ill., USA). Flow-through was collected by centrifugation at 1000×g for 30 s. […] The membrane was probed using 1:1000 anti-V5 antibody (Invitrogen, Carlsbad, Calif., USA) overnight at 4° C. in 3% fish gelatin in TBS-T. The blot was then incubated for 1 h at room temperature with an ECL sheep anti-mouse IgG secondary antibody and detected by ECL reagent (ThermoFisher Scientific, Waltham, Mass., USA) or by incubation with a goat anti-mouse IRDye secondary antibody and analyzed by an Odyssey infrared imaging system (LI-COR Biosciences, Lincoln, Nebr., USA).

T1 sequence (P51170 whole entry): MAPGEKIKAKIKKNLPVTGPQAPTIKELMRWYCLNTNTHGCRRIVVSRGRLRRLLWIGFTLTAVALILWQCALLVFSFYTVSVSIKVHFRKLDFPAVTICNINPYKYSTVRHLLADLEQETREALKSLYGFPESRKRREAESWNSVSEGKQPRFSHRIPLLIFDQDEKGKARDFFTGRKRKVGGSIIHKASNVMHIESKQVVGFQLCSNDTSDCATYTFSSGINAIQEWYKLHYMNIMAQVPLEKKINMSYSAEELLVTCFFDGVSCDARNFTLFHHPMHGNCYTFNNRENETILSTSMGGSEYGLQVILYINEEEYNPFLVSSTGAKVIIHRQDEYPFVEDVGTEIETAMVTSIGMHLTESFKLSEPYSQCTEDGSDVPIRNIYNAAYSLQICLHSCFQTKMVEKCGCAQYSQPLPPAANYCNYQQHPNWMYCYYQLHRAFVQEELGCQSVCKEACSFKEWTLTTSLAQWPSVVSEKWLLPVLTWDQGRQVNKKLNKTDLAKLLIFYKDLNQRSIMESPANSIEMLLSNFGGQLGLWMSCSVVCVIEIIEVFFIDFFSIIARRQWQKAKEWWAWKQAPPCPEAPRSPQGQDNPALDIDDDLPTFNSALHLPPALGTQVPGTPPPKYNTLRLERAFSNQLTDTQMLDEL

GGLPVPLDQTLPLNVNPA [S18]
binding to γENaC (pull-down): without any detectable binding
